Measured values published in ChEMBL document CHEMBL4138175, “Newly designed organotin(IV) carboxylates with peptide linkage: Synthesis, structural elucidation, physicochemical characterizations and pharmacological investigations” (Eur J Med Chem, 2018).
Activity calls are given as the source filed them. The calls are words filed in the database; no cut-off is given here.

Legend:
NCI-H157 [1] = test: Cytotoxicity against human NCI-H157 cells at 100 uM after 48 hrs by sulforhodamine B assay; format: functional
NCI-H157 [2] = test: Cytotoxicity against human NCI-H157 cells at 10 uM after 48 hrs by sulforhodamine B assay; format: functional
NCI-H157 [3] = test: Cytotoxicity against human NCI-H157 cells at 1 uM after 48 hrs by sulforhodamine B assay; format: functional
NCI-H157 [4] = test: Cytotoxicity against human NCI-H157 cells at 0.1 uM after 48 hrs by sulforhodamine B assay; format: functional
Leishmania major [5] = test: Antileishmanial activity against Leishmania major promastigotes at 100 uM after 72 hrs by MTT assay relative to control; format: functional
Leishmania major [6] = test: Antileishmanial activity against Leishmania major promastigotes at 10 uM after 72 hrs by MTT assay relative to control; format: functional
Leishmania major [7] = test: Antileishmanial activity against Leishmania major promastigotes at 1 uM after 72 hrs by MTT assay relative to control; format: functional
Leishmania major [8] = test: Antileishmanial activity against Leishmania major promastigotes at 0.1 uM after 72 hrs by MTT assay relative to control; format: functional
Klebsiella pneumoniae [9] = test: Antibacterial activity against Klebsiella pneumoniae assessed as zone of inhibition after 24 to 48 hrs by well diffusion method; format: functional
Streptococcus pyogenes [10] = test: Antibacterial activity against Streptococcus pyogenes assessed as zone of inhibition after 24 to 48 hrs by well diffusion method; format: functional
[11] = test system: Staphylococcus epidermidis; test: Antibacterial activity against Staphylococcus epidermidis assessed as zone of inhibition after 24 to 48 hrs by well diffusion method; format: functional
Staphylococcus aureus [12] = test: Antibacterial activity against Staphylococcus aureus assessed as zone of inhibition after 24 to 48 hrs by well diffusion method; format: functional
Serratia marcescens [13] = test: Antibacterial activity against Serratia marcescens assessed as zone of inhibition after 24 to 48 hrs by well diffusion method; format: functional
Pseudomonas aeruginosa [14] = test: Antibacterial activity against Pseudomonas aeruginosa assessed as zone of inhibition after 24 to 48 hrs by well diffusion method; format: functional
Escherichia coli [15] = test: Antibacterial activity against Escherichia coli assessed as zone of inhibition after 24 to 48 hrs by well diffusion method; format: functional
Klebsiella pneumoniae [16] = test: Antibacterial activity against Klebsiella pneumoniae assessed as zone of inhibition by measuring activity index after 24 to 48 hrs by well diffusion method relative to tetracycline; format: functional, organism-based
Klebsiella pneumoniae [17] = test: Antibacterial activity against Klebsiella pneumoniae assessed as zone of inhibition by measuring activity index after 24 to 48 hrs by well diffusion method relative to ampicillin; format: functional, organism-based
Klebsiella pneumoniae [18] = test: Antibacterial activity against Klebsiella pneumoniae assessed as zone of inhibition by measuring activity index after 24 to 48 hrs by well diffusion method relative to amoxicillin; format: functional, organism-based
[19] = test system: Staphylococcus epidermidis; test: Antibacterial activity against Staphylococcus epidermidis assessed as zone of inhibition by measuring activity index after 24 to 48 hrs by well diffusion method relative to penicillin G; format: functional, organism-based
[20] = test system: Staphylococcus epidermidis; test: Antibacterial activity against Staphylococcus epidermidis assessed as zone of inhibition by measuring activity index after 24 to 48 hrs by well diffusion method relative to ampicillin; format: functional, organism-based
Serratia marcescens [21] = test: Antibacterial activity against Serratia marcescens assessed as zone of inhibition by measuring activity index after 24 to 48 hrs by well diffusion method relative to penicillin G; format: functional
Serratia marcescens [22] = test: Antibacterial activity against Serratia marcescens assessed as zone of inhibition by measuring activity index after 24 to 48 hrs by well diffusion method relative to ampicillin; format: functional
Serratia marcescens [23] = test: Antibacterial activity against Serratia marcescens assessed as zone of inhibition by measuring activity index after 24 to 48 hrs by well diffusion method relative to amoxicillin; format: functional
Pseudomonas aeruginosa [24] = test: Antibacterial activity against Pseudomonas aeruginosa assessed as zone of inhibition by measuring activity index after 24 to 48 hrs by well diffusion method relative to tetracycline; format: functional, organism-based
Pseudomonas aeruginosa [25] = test: Antibacterial activity against Pseudomonas aeruginosa assessed as zone of inhibition by measuring activity index after 24 to 48 hrs by well diffusion method relative to penicillin G; format: functional, organism-based
Pseudomonas aeruginosa [26] = test: Antibacterial activity against Pseudomonas aeruginosa assessed as zone of inhibition by measuring activity index after 24 to 48 hrs by well diffusion method relative to amoxicillin; format: functional, organism-based
Escherichia coli [27] = test: Antibacterial activity against Escherichia coli assessed as zone of inhibition by measuring activity index after 24 to 48 hrs by well diffusion method relative to tetracycline; format: functional
DNA [28] = test: Binding affinity to single-stranded DNA (unknown origin) after 10 mins by UV-visible spectrometric method; format: nucleic-acid assay
NCI-H157 [29] = test: Cytotoxicity against human NCI-H157 cells after 48 hrs by sulforhodamine B assay; format: functional, cell-based
DNA [30] = test: Binding affinity to single-stranded DNA (unknown origin) assessed as red shift up to 72 uM after 10 mins by UV-visible spectrometric method; format: nucleic-acid assay
Streptococcus pyogenes [31] = test: Antibacterial activity against Streptococcus pyogenes assessed as zone of inhibition by measuring activity index after 24 to 48 hrs by well diffusion method relative to tetracycline; format: functional, organism-based
Streptococcus pyogenes [32] = test: Antibacterial activity against Streptococcus pyogenes assessed as zone of inhibition by measuring activity index after 24 to 48 hrs by well diffusion method relative to penicillin G; format: functional, organism-based
Streptococcus pyogenes [33] = test: Antibacterial activity against Streptococcus pyogenes assessed as zone of inhibition by measuring activity index after 24 to 48 hrs by well diffusion method relative to ampicillin; format: functional, organism-based
Streptococcus pyogenes [34] = test: Antibacterial activity against Streptococcus pyogenes assessed as zone of inhibition by measuring activity index after 24 to 48 hrs by well diffusion method relative to amoxicillin; format: functional, organism-based
[35] = test system: Staphylococcus epidermidis; test: Antibacterial activity against Staphylococcus epidermidis assessed as zone of inhibition by measuring activity index after 24 to 48 hrs by well diffusion method relative to tetracycline; format: functional, organism-based
[36] = test system: Staphylococcus epidermidis; test: Antibacterial activity against Staphylococcus epidermidis assessed as zone of inhibition by measuring activity index after 24 to 48 hrs by well diffusion method relative to amoxicillin; format: functional, organism-based
Staphylococcus aureus [37] = test: Antibacterial activity against Staphylococcus aureus assessed as zone of inhibition by measuring activity index after 24 to 48 hrs by well diffusion method relative to tetracycline; format: functional, organism-based
Staphylococcus aureus [38] = test: Antibacterial activity against Staphylococcus aureus assessed as zone of inhibition by measuring activity index after 24 to 48 hrs by well diffusion method relative to penicillin G; format: functional, organism-based
Staphylococcus aureus [39] = test: Antibacterial activity against Staphylococcus aureus assessed as zone of inhibition by measuring activity index after 24 to 48 hrs by well diffusion method relative to ampicillin; format: functional, organism-based
Staphylococcus aureus [40] = test: Antibacterial activity against Staphylococcus aureus assessed as zone of inhibition by measuring activity index after 24 to 48 hrs by well diffusion method relative to amoxicillin; format: functional, organism-based
Pseudomonas aeruginosa [41] = test: Antibacterial activity against Pseudomonas aeruginosa assessed as zone of inhibition by measuring activity index after 24 to 48 hrs by well diffusion method relative to ampicillin; format: functional, organism-based
Escherichia coli [42] = test: Antibacterial activity against Escherichia coli assessed as zone of inhibition by measuring activity index after 24 to 48 hrs by well diffusion method relative to penicillin G; format: functional, organism-based
Escherichia coli [43] = test: Antibacterial activity against Escherichia coli assessed as zone of inhibition by measuring activity index after 24 to 48 hrs by well diffusion method relative to ampicillin; format: functional, organism-based
Escherichia coli [44] = test: Antibacterial activity against Escherichia coli assessed as zone of inhibition by measuring activity index after 24 to 48 hrs by well diffusion method relative to amoxicillin; format: functional, organism-based
Klebsiella pneumoniae [45] = test: Antibacterial activity against Klebsiella pneumoniae assessed as zone of inhibition by measuring activity index after 24 to 48 hrs by well diffusion method relative to penicillin G; format: functional, organism-based

Substance | Activity (NCI-H157 [1]) | Activity (NCI-H157 [2]) | Activity (NCI-H157 [3]) | Activity (NCI-H157 [4]) | Activity (Leishmania major [5]) | Activity (Leishmania major [6]) | Activity (Leishmania major [7]) | Activity (Leishmania major [8]) | inhibition zone (IZ) (Klebsiella pneumoniae [9]) | inhibition zone (IZ) (Streptococcus pyogenes [10]) | inhibition zone (IZ) [11] | inhibition zone (IZ) (Staphylococcus aureus [12]) | inhibition zone (IZ) (Serratia marcescens [13]) | inhibition zone (IZ) (Pseudomonas aeruginosa [14]) | inhibition zone (IZ) (Escherichia coli [15]) | Activity index (Serratia marcescens [21]) | Activity index (Serratia marcescens [22]) | Activity index (Serratia marcescens [23]) | Activity (NCI-H157 [29]) | Activity index [35] | further results
(1,10-Phenanthroline) trimethylstannyl 2-(4-methoxy-2-nitrophenylcarbamoyl)benzoate | 55.5% | 52.4% | 47.1% | 44% | 52.7% | 58.4% | 57.9% | 56.2% | 27.7 mm | 15 mm | inactive | 5.66 mm | 20 mm | 11.3 mm | 20.7 mm | 2.5 | 2.5 | 3.34 | Dose-dependent effect | – | Activity index (Klebsiella pneumoniae [16]): 1.98; Activity index (Klebsiella pneumoniae [17]): 4.61; Activity index (Klebsiella pneumoniae [18]): 4.61; Activity_index [19]: inactive; Activity_index [20]: inactive; Activity index (Pseudomonas aeruginosa [24]): 1.89; Activity index (Pseudomonas aeruginosa [25]): 1.89; Activity index (Pseudomonas aeruginosa [26]): 1.89; Activity index (Escherichia coli [27]): 10.3; K (DNA [28]): 2.5 ×10⁴ /M; Activity (DNA [30]): < 3 nm
Tributylstannyl 2-(4-methoxy-2-nitrophenylcarbamoyl)benzoate | 38.2% | 37.7% | 35.6% | 32.1% | 66.9% | 63.3% | 57.4% | 52.6% | 15 mm | inactive | 16 mm | inactive | 12.7 mm | 15.7 mm | 1.56 mm | 1.58 | 1.58 | 2.11 | Dose-dependent effect | 1.6 | Activity index (Klebsiella pneumoniae [16]): 1.07; Activity index (Klebsiella pneumoniae [17]): 2.5; Activity index (Klebsiella pneumoniae [18]): 2.5; Activity_index (Streptococcus pyogenes [31]): inactive; Activity_index (Streptococcus pyogenes [32]): inactive; Activity_index (Streptococcus pyogenes [33]): inactive; Activity_index (Streptococcus pyogenes [34]): inactive; Activity index [36]: 8; Activity_index (Staphylococcus aureus [37]): inactive; Activity_index (Staphylococcus aureus [38]): inactive; Activity_index (Staphylococcus aureus [39]): inactive; Activity_index (Staphylococcus aureus [40]): inactive; Activity index (Pseudomonas aeruginosa [24]): 2.61; Activity index (Pseudomonas aeruginosa [25]): 2.61; Activity index (Pseudomonas aeruginosa [26]): 2.61; Activity index (Escherichia coli [27]): 0.78; K (DNA [28]): 7.6 ×10³ /M; Activity (DNA [30]): < 3 nm
Dioctylstannanediyl bis 2-(4-methoxy-2-nitrophenylcarbamoyl)benzoate | 63.7% | 59.1% | 54.3% | 48.9% | 58.8% | 55.2% | 47.1% | 42.9% | 22.3 mm | 12 mm | 11.3 mm | inactive | 5 mm | inactive | inactive | 0.63 | 0.63 | 0.84 | Dose-dependent effect | 1.13 | Activity index (Klebsiella pneumoniae [16]): 1.59; Activity index (Klebsiella pneumoniae [17]): 3.72; Activity index (Klebsiella pneumoniae [18]): 3.72; Activity index [36]: 5.67; Activity_index (Staphylococcus aureus [37]): inactive; Activity_index (Staphylococcus aureus [38]): inactive; Activity_index (Staphylococcus aureus [39]): inactive; Activity_index (Staphylococcus aureus [40]): inactive; Activity_index (Pseudomonas aeruginosa [41]): inactive; Activity_index (Escherichia coli [42]): inactive; Activity_index (Escherichia coli [43]): inactive; Activity_index (Escherichia coli [44]): inactive
(2,2'-Bipyridine) trimethylstannyl 2-(4-methoxy-2-nitrophenylcarbamoyl)benzoate | 63.2% | 59.9% | 57.8% | 56.7% | 56.6% | 50.9% | 44.3% | 39.2% | inactive | inactive | 23.3 mm | 19.3 mm | 19.3 mm | 20.3 mm | 17.7 mm | 2.42 | 2.42 | 3.22 | Dose-dependent effect | 2.33 | Activity_index (Klebsiella pneumoniae [45]): inactive; Activity_index (Streptococcus pyogenes [31]): inactive; Activity_index (Streptococcus pyogenes [32]): inactive; Activity_index (Streptococcus pyogenes [33]): inactive; Activity_index (Streptococcus pyogenes [34]): inactive; Activity index [36]: 11.7; Activity index (Pseudomonas aeruginosa [24]): 3.39; Activity index (Pseudomonas aeruginosa [25]): 3.39; Activity index (Pseudomonas aeruginosa [26]): 3.39; Activity index (Escherichia coli [27]): 8.83; K (DNA [28]): 1.2 ×10⁴ /M; Activity (DNA [30]): < 3 nm
Divinylstannanediyl bis 2-(4-methoxy-2-nitrophenylcarbamoyl)benzoate | 64.3% | 61% | 58.3% | 55.4% | 60.9% | 55.4% | 48.8% | 43.3% | inactive | inactive | 14.2 mm | inactive | 11 mm | inactive | inactive | 1.37 | 1.37 | 1.84 | Dose-dependent effect | 1.42 | Activity_index (Klebsiella pneumoniae [45]): inactive; Activity_index (Streptococcus pyogenes [31]): inactive; Activity_index (Streptococcus pyogenes [32]): inactive; Activity_index (Streptococcus pyogenes [33]): inactive; Activity_index (Streptococcus pyogenes [34]): inactive; Activity index [36]: 7.11; Activity_index (Staphylococcus aureus [37]): inactive; Activity_index (Staphylococcus aureus [38]): inactive; Activity_index (Staphylococcus aureus [39]): inactive; Activity_index (Staphylococcus aureus [40]): inactive; Activity_index (Pseudomonas aeruginosa [41]): inactive; Activity_index (Escherichia coli [42]): inactive; Activity_index (Escherichia coli [43]): inactive; Activity_index (Escherichia coli [44]): inactive
